One experiment concerns T1, rEgGPXL-4.
T1 construct: gene EgGPXL-4; full-length ORF, 159 residues, no signal peptide, pCold-II 6xHis tag, E. coli BL21, TALON purified, about 18-20 kDa; plant-type GPX; cDNA 787 bp; printed Cys-64, Gln-66, Phe-67, Glu-71, Gly-100, Asn-126, Phe-127, Lys-129, Gly-136
Nature of the experiment: NADPH oxidation at […] nm, thioredoxin/thioredoxin reductase coupled. The note with it: 6 µM yeast Trx-2 as electron donor, 0.3 µM yeast Trx reductase, 0.2 mM NADPH, 20 mM HEPES-NaOH pH 7.5; t-BOOH up to 0.04 mM. The class given is biochemical, Euglena gracilis.

The next experiment relates to T2, rEgGPXL-2.
T2 construct: gene EgGPXL-2; full-length ORF, 173 residues, no signal peptide, pCold-II 6xHis tag, E. coli BL21, TALON purified, about 18-20 kDa; animal-type GPX, Cys-45 in place of Sec; cDNA 737 bp
The description is as above. The format is biochemical, Euglena gracilis. The conditions noted are these: 6 µM yeast Trx-2 as electron donor, 0.3 µM yeast Trx reductase, 0.2 mM NADPH, 20 mM HEPES-NaOH pH 7.5; t-BOOH up to 0.04 mM.

On to `CC(C)(C)OO` [t-BOOH], for which the Km with rEgGPXL-4 worked out at 38.5 ± 1.6 µM; with rEgGPXL-2 it was 28.5 ± 3.1 µM.
